Results from patent US11168079B2, “Alkene compounds as farnesoid x receptor modulators” (BRISTOL-MYERS SQUIBB COMPANY, priority 2017, dated 2021).

Target: T1, human FXR (Homo sapiens, UniProt Q96RI1)
T1 sequence (Q96RI1 262-486 limits assumed): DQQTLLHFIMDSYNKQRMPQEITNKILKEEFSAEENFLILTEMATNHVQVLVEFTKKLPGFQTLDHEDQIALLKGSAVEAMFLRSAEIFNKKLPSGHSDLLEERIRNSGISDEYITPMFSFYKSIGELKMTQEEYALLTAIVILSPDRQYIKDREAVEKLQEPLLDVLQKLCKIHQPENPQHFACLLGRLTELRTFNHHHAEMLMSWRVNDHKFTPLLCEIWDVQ
Test: transient human FXR/Gal4-luciferase reporter assay (HLE GAL-FXR)
Settings: HEK293 cells

[1] = HLE GAL-FXR EC50, Gal4-hFXR fusion reporter
[2] = FXR EC50 (nM), Gal4-hFXR fusion reporter, Table 1

Description: A Gal4-hFXR fusion construct reporter system was used as the primary assay to characterize compound activity. A construct including 5 copies of the Gal4 promoter response element upstream of a firefly luciferase reporter cDNA was stably expressed in HEK293 cells. This reporter cell line was maintained in Dulbecco's Modified Eagle's medium (DMEM; Gibco) supplemented with 1% penicillin-streptomycin (P/S) solution, 500 μg/mL Zeocin and 10% charcoal/dextran-treated fetal bovine serum (cs-FBS) at 37° C. in a humidified 5% CO2 atmosphere. Another plasmid was constructed in which the human cytomegalovirus promoter in the pcDNA3.1 vector directs the expression of the cDNA encoding a fusion protein comprised of the DNA binding domain from the Gal4 transcription factor fused to the ligand binding domain from human FXR.
For compound testing, 100 nL of the compounds (serial dilutions in DMSO) are dispensed with an Echo acoustic dispenser (Labcyte) into the wells of a Corning/Costar clear bottom 384-well white plate. The transfected cells are harvested, counted, and diluted such that 10-25,000 cells in 25 μL are plated into each well of the 384-well compound assay plate. The compound-treated cells are incubated overnight at 37° C. in a humidified 5% CO2 atmosphere. The next morning 25 μL of Steady-Glo (Promega) are added to each well of the plate, the mixture is incubated for 15 min. with shaking, and luminescence is measured on an Envision (Perkin Elmer) plate reader.

| Structure (SMILES) | EC50 [1] | EC50 [2] |
| --- | --- | --- |
| O=C(O)c1cnn2cc(N3CCC(/C=C/c4c(-c5ccccc5OC(F)(F)F)noc4C4CC4)CC3)ccc12 [Example 118] | – | 276 nM |
| Cc1nc(C(=O)O)cc2ccc(N3CCC(/C=C/c4c(-c5ccccc5OC(F)(F)F)noc4C4CC4)CC3)cc12 [Example 119] | – | 96 nM |
| COc1cc(C(=O)O)nc2ccc(N3CCC(/C=C/c4c(-c5ncccc5C(F)(F)F)noc4C4CC4)CC3)cc12 [Example 125] | – | 14 nM |
| O=C(O)c1cc(OC2CCC2)c2cc(N3CC4C(/C=C/c5c(-c6ccccc6C(F)(F)F)noc5C5CC5)C4C3)ccc2n1 (centres unmarked) [Example 130] | – | 50 nM |
| O=C(O)c1cc(OC2COC2)c2cc(N3CC4C(/C=C/c5c(-c6ccccc6C(F)(F)F)noc5C5CC5)C4C3)ccc2n1 (centres unmarked) [Example 134] | – | 15 nM |
| O=C(O)c1cnc2ccc(N3CC4C(/C=C/c5c(-c6ccccc6C(F)(F)F)noc5C5CC5)C4C3)cc2n1 (centres unmarked) [Example 138] | – | 2470 nM |
| O=C(O)c1cnc2cc(N3CC4C(/C=C/c5c(-c6ccccc6C(F)(F)F)noc5C5CC5)C4C3)ccc2n1 (centres unmarked) [Example 140] | – | 142 nM |
| O=C(O)c1cc(OC2CCC2)c2cc(N3CC4C(/C=C/c5c(-c6cccnc6C(F)(F)F)noc5C5CC5)C4C3)ccc2n1 (centres unmarked) [Example 142] | – | 54 nM |
| O=C(O)c1cc(OC2COC2)c2cc(N3CC4C(/C=C/c5c(-c6cccnc6C(F)(F)F)noc5C5CC5)C4C3)ccc2n1 (centres unmarked) [Example 143] | – | 88 nM |
| O=C(O)c1cc(C(F)(F)F)c2cc(N3CC[C@@H](/C=C/c4c(-c5ccccc5C(F)(F)F)noc4C4CC4)C3)ccc2n1 [Example 145] | – | 419 nM |
| O=C(O)c1cc(C(F)(F)F)c2cc(N3CC[C@H](/C=C/c4c(-c5ccccc5C(F)(F)F)noc4C4CC4)C3)ccc2n1 [Example 146] | – | 22 nM |
| O=C(O)c1cc(OC2CCC2)c2cc(N3CC[C@@H](/C=C/c4c(-c5ccccc5C(F)(F)F)noc4C4CC4)C3)ccc2n1 [Example 147] | – | 139 nM |
| O=C(O)c1cc(OC2CCC2)c2cc(N3CC[C@H](/C=C/c4c(-c5ccccc5C(F)(F)F)noc4C4CC4)C3)ccc2n1 [Example 148] | – | 2 nM |
| CC(C)Oc1cc(C(=O)O)nc2ccc(N3CC(/C=C/c4c(-c5ccccc5C(F)(F)F)noc4C4CC4)C3)cc12 [Example 149] | – | 164 nM |
| O=C(O)c1cc(OC2CCC2)c2cc(N3CC(/C=C/c4c(-c5ccccc5C(F)(F)F)noc4C4CC4)C3)ccc2n1 [Example 150] | – | 58 nM |
| O=C(O)c1cc(OC2COC2)c2cc(N3CC(/C=C/c4c(-c5ccccc5C(F)(F)F)noc4C4CC4)C3)ccc2n1 [Example 151] | – | 96 nM |
| O=C(O)c1cc(OC2CC(F)(F)C2)c2cc(N3CC(/C=C/c4c(-c5ccccc5C(F)(F)F)noc4C4CC4)C3)ccc2n1 [Example 152] | – | 228 nM |
| COc1cc(C(=O)O)nc2ccc(N3CC(/C=C/c4c(-c5ccccc5C(F)(F)F)noc4C4CC4)C3)cc12 [Example 154] | – | 63 nM |
| O=C(O)c1cc(O[C@@H]2CCOC2)c2cc(N3CC4C(/C=C/c5c(-c6cccnc6C(F)(F)F)noc5C5CC5)C4C3)ccc2n1 (some centres unmarked) [Example 157] | – | 165 nM |
| CCOc1cc(N2CC3C(/C=C/c4c(-c5ccccc5C(F)(F)F)noc4C4CC4)C3C2)cnc1C(N)=O (centres unmarked) [Example 158] | – | 555 nM |
| O=C(O)c1cc(OC2CCC2)c2cc(N3CC(/C=C/c4c(-c5c(Cl)ccnc5Cl)noc4C4CC4)C3)ccc2n1 [Example 159] | – | 39 nM |

The next lines start with the values.

| EC50 [1] | EC50 [2] | Structure (SMILES) |
| --- | --- | --- |
| 862 nM | – | O=C(O)c1ccc(-c2nc(N3CC4C(/C=C/c5c(-c6c(Cl)cncc6Cl)noc5C5CC5)C4C3)no2)cc1 (centres unmarked) [Example 116, (E)-4-(3-(6-(2-(5-Cyclopropyl-3-(3,5-dichloropyridin-4-yl)isoxazol-4-yl)vinyl)-3-azabicyclo[3.1.0]hexan-3-yl)-1,2,4-oxadiazol-5-yl)benzoic acid] |
| – | 494 nM | O=C(O)c1cccc(-c2nc(N3CC4C(/C=C/c5c(-c6c(Cl)cncc6Cl)noc5C5CC5)C4C3)no2)c1 (centres unmarked) [Example 117] |
| – | 18 nM | O=C(O)c1cc(OC2CCOC2)c2cc(N3CC4C(/C=C/c5c(-c6c(Cl)cncc6Cl)noc5C5CC5)C4C3)ccc2n1 (centres unmarked) [Example 120] |
| – | 824 nM | O=C(O)c1ccc(N2CC3C(/C=C/c4c(-c5c(Cl)cncc5Cl)noc4C4CC4)C3C2)c2ncccc12 (centres unmarked) [Example 121] |
| – | 126 nM | COc1nc(C(=O)O)cc2ccc(N3CC4C(/C=C/c5c(-c6c(Cl)cncc6Cl)noc5C5CC5)C4C3)cc12 (centres unmarked) [Example 122] |
| – | 206 nM | O=C(O)c1cc(-c2nc(N3CC4C(/C=C/c5c(-c6c(Cl)cncc6Cl)noc5C5CC5)C4C3)no2)cc(C(F)(F)F)c1 (centres unmarked) [Example 123] |
| – | 284 nM | COc1cc(C(=O)O)nc2sc(N3CC4C(/C=C/c5c(-c6c(Cl)cncc6Cl)noc5C5CC5)C4C3)nc12 (centres unmarked) [Example 124] |
| – | 18 nM | O=C(O)c1cc(OC2COC2)c2cc(N3CC4C(/C=C/c5c(-c6c(Cl)cncc6Cl)noc5C5CC5)C4C3)ccc2n1 (centres unmarked) [Example 126] |
| – | 30 nM | O=C(O)c1cc(O[C@@H]2CCOC2)c2cc(N3CC4C(/C=C/c5c(-c6c(Cl)cncc6Cl)noc5C5CC5)C4C3)ccc2n1 (some centres unmarked) [Example 127] |
| – | 27 nM | O=C(O)c1cc(O[C@H]2CCOC2)c2cc(N3CC4C(/C=C/c5c(-c6c(Cl)cncc6Cl)noc5C5CC5)C4C3)ccc2n1 (some centres unmarked) [Example 128] |
| – | 240 nM | COc1ccc(COc2cc(C(=O)O)nc3ccc(N4CC5C(/C=C/c6c(-c7c(Cl)cncc7Cl)noc6C6CC6)C5C4)cc23)cc1 (centres unmarked) [Example 129] |
| – | 16 nM | COc1cc(C(=O)O)nc2ccc(N3CC4C(/C=C/c5c(-c6ccccc6C(F)(F)F)noc5C5CC5)C4C3)cc12 (centres unmarked) [Example 132] |
| 1290 nM | – | O=C(O)c1cccc(-c2noc(N3CC4C(/C=C/c5c(-c6c(Cl)cncc6Cl)noc5C5CC5)C4C3)n2)c1 (centres unmarked) [Example 133, (E)-3-(5-(6-(2-(5-cyclopropyl-3-(3,5-dichloropyridin-4-yl)isoxazol-4-yl)vinyl)-3-azabicyclo[3.1.0]hexan-3-yl)-1,2,4-oxadiazol-3-yl)benzoic acid] |
| – | 416 nM | COc1nc(C(=O)O)cc2ccc(N3CC4C(/C=C/c5c(-c6ccccc6C(F)(F)F)noc5C5CC5)C4C3)cc12 (centres unmarked) [Example 135] |
| – | 20 nM | O=C(O)c1cc(OC2CCC2)c2cc(N3CC4C(/C=C/c5c(-c6c(Cl)cncc6Cl)noc5C5CC5)C4C3)ccc2n1 (centres unmarked) [Example 136] |
| – | 932 nM | O=C(O)c1cc(OC2COC2)cc(-c2nc(N3CC4C(/C=C/c5c(-c6c(Cl)cncc6Cl)noc5C5CC5)C4C3)no2)c1 (centres unmarked) [Example 137] |
| – | 163 nM | COc1cc(C(=O)O)nc2sc(N3CC4C(/C=C/c5c(-c6ccccc6C(F)(F)F)noc5C5CC5)C4C3)nc12 (centres unmarked) [Example 139] |
| – | 98 nM | COc1cc(C(=O)O)nc2ccc(N3CC4C(/C=C/c5c(-c6cccnc6C(F)(F)F)noc5C5CC5)C4C3)cc12 (centres unmarked) [Example 141] |
| – | 424 nM | O=C(O)c1ccc(N2CC3C(/C=C/c4c(-c5c(Cl)cccc5Cl)noc4C4CC4)C3C2)nc1 (centres unmarked) [Example 144] |
| – | 473 nM | COc1cc(C(=O)O)nc2sc(N3CC(/C=C/c4c(-c5ccccc5C(F)(F)F)noc4C4CC4)C3)nc12 [Example 153] |
| – | 784 nM | COc1cc(C(=O)O)cc(-c2nc(N3CC4C(/C=C/c5c(-c6cccnc6C(F)(F)F)noc5C5CC5)C4C3)no2)c1 (centres unmarked) [Example 155] |
| – | 43 nM | CCOc1cc(C(=O)O)nc2ccc(N3CC4C(/C=C/c5c(-c6cccnc6C(F)(F)F)noc5C5CC5)C4C3)cc12 (centres unmarked) [Example 156] |
| – | 65 nM | O=C(O)c1cc(OC2COC2)c2cc(N3CC(/C=C/c4c(-c5c(Cl)cncc5Cl)noc4C4CC4)C3)ccc2n1 [Example 160] |
